In patent US5886026A, “Anti-angiogenic compositions and methods of use” (priority 1994, dated 1999):

Columns and labels:
in vitro = details: human, neutrophils
Method: Neutrophils were prepared from freshly collected human citrated whole blood. Briefly, 400 ml of blood were mixed with 80 ml of 4% dextran T500 (Pharmacia LKB, Biotechnology AB Uppsala, Sweden) in HBSS and allowed to settle for 1 h. Plasma was collected continuously and 5 ml applied to 5 ml of Ficoll Paque (Pharmacia) in 15 ml polypropylene tubes (Coming, N.Y.). Following centrifugation at 500×g for 30 min, the neutrophil pellets were washed free of erythrocytes by 20 s of hypotonic shock. Neutrophils were resuspended in HBSS, kept on ice and used for experiments within 3 h. Neutrophil viability and purity was always greater than 90%.
Cells were incubated for 20 minutes at 33° C. then for 10 minutes at 37° C. before addition to crystals or zymosan.

neutrophils [1] = assay: Neutrophil degranulation, myeloperoxidase release; type: cell-based, human; details: 28 μM, CPPD
Method: (§1) All experiments that studied neutrophil responses to crystals or zymosan in the presence of paclitaxel were performed using plasma opsonized CPPD or zymosan. Opsonization of crystals or zymosan was done with 50% heparinized plasma at a concentration of 75 mg of CPPD or 12 mg of zymosan per ml of 50% plasma. Crystals or zymosan were incubated with plasma for 30 min. at 37° C. and then washed in excess HBSS.
(§2) One and a half milliliter Eppendorf tubes containing either 25 mg of CPPD or 1 mg of zymosan were preheated to 37° C. 0.5 ml of cells at 37° C. were added followed by vigorous shaking to initiate the reactions.
Myeloperoxidase (MPO) activity was measured by the increase in absorbance at 450 nm that accompanies the oxidation of dianisidine. 7.8 mg of dianisidine was dissolved in 100 ml of 0.1M citrate buffer, pH 5.5 at […] by sonication. To a 1 ml cuvette, 0.89 mL of the dianisidine solution was added, followed by 50 μl of 1% Triton×100, 10 μl of a 0.05% hydrogen peroxide in water solution and 50 μl of crystal-cell supernatant.

neutrophils [2] = assay: Neutrophil chemiluminescence in response to plasma opsonized CPPD or zymosan; type: cell-based, human
Method: CPPD (triclinic) crystals were prepared. The size distribution of the crystals was approximately 33% less than 10 μm, 58% between 10 and 20 μm and 9% greater than 20 μm. Crystals prepared under the above conditions are pyrogen free and crystals produced under sterile, pyrogen free conditions produced the same magnitude of neutrophil response as crystals prepared under normal, non-sterile laboratory conditions.
as §1
All chemiluminescence studies were performed at a cell concentration of 5,000,000 cells/ml in HBSS with CPPD (50 mg/ml). In all experiments 0.5 ml of cells was added to 25 mg of CPPD or 0.5 mg of zymosan in 1.5 ml capped Eppendorf tubes. 10 μl of luminol dissolved in 25% DMSO in HBSS was added to a final concentration of 1 μM and the samples were mixed to initiate neutrophil activation by the crystals or zymosan. Chemiluminescence was monitored using an LKB Luminometer (Model 1250.) at 37° C. with shaking immediately prior to measurements to resuspend the crystals or zymosan. Control tubes contained cells, drug and luminol (crystals absent).

neutrophils [3] = assay: Neutrophil degranulation, lysozyme release; type: cell-based, human; details: 28 μM, CPPD
Method: as §1, §2
Briefly, Micrococcuis lysodeikticzis was suspended at 0.1 mg/ml in 65 mM potassium phosphate buffer, pH 6.2 and the absorbance at 450 nm was adjusted to 0.7 units by dilution. The crystal (or zymosan) and cell supernatant (100 μl) was added to 2.5 ml of the Micrococcus suspension and the decrease in absorbance was monitored.

[4] = Encapsulation of paclitaxel or baccatin in ELVAX:poly-l-lactic acid microspheres; type: physicochemical; details: for amount encapsulated: from 500 μg
Method: Microspheres are then prepared in a dissolution machine (Six-spindle dissolution tester, VanderKanp, Van Kell Industries Inc., U.S.A.) in triplicate at 200 rpm, 42° C., for 3 hours. Microspheres so prepared are washed twice in water and sized on the microscope.

[5] = system: chick chorioallantoic membrane (CAM); assay: Chick chorioallantoic membrane (CAM) assay, paclitaxel in methylcellulose disks; type: in vivo
Source text: As noted above, the present invention provides methods and compositions which utilize anti-angiogenic factors. Briefly, within the context of the present invention, anti-angiogenic factors should be understood to include any protein, peptide, chemical, or other molecule, which acts to inhibit vascular growth. A variety of methods may be readily utilized to determine the anti-angiogenic activity of a given factor, including for example, chick chorioallantoic membrane ("CAM") assays. Briefly, as described in more detail below in Examples 2A and 2C, a portion of the shell from a freshly fertilized chicken egg is removed, and a methyl cellulose disk containing a sample of the anti-angiogenic factor to be tested is placed on the membrane. After several days (e.g., 48 hours), inhibition of vascular growth by the sample to be tested may be readily determined by visualization of the chick chorioallantoic membrane in the region surrounding the methyl cellulose disk. Inhibition of vascular growth may also be determined quantitatively, for example, by determining the number and size of blood vessels surrounding the methyl cellulose disk, as compared to a control methyl cellulose disk.
Fertilized, domestic chick embryos were incubated for 3 days prior to shell-less culturing. […] These were then placed into an incubator at 90% relative humidity and 3% CO2 and incubated for 3 days.
The membranes of the 8 day-old shell-less embryo were flooded with 2% glutaraldehyde in 0.1M Na cacodylate buffer; additional fixative was injected under the CAM. After 10 minutes in situ, the CAM was removed and placed into fresh fixative for 2 hours at room temperature. The tissue was then washed overnight in cacodylate buffer containing 6% sucrose. The areas of interest were postfixed in 1% osmium tetroxide for 1.5 hours at 4° C. The tissues were then dehydrated in a graded series of ethanols, solvent exchanged with propylene oxide, and embedded in Spurr resin. Thin sections were cut with a diamond knife, placed on copper grids, stained, and examined in a Joel 1200EX electron microscope. Similarly, […] sections were cut and stained with toluene blue for light microscopy.
This imaging setup was used at a magnification of 160 times which permitted the direct visualization of blood cells within the capillaries; thereby blood flow in areas of interest could be easily assessed and recorded. […] This scale represents the degree of overall inhibition with maximal inhibition represented as a 3 on the avascular gradient scale.

synoviocytes = assay: 3H-Thymidine incorporation into synoviocytes; type: cell-based
Method: At these times, […] of ^3 H-thymidine was added to the cell culture and incubated for 2 hours at 37° C. The cells were placed through a cell harvester, washed through a filter, the filters were cut, and the amount of radiation contained in the filter sections determined. Once the amount of thymidine incorporated into the cells was ascertained, it was used to determine the rate of cell proliferation. This experiment was repeated three times and the data collated together.

neutrophils [6] = assay: Neutrophil superoxide anion generation; type: cell-based, human; details: 28 μM
Method: as §1
Superoxide anion concentrations were measured using the superoxide dismutase inhibitable reduction of cytochrome c assay. Briefly, 25 mg of crystals or 0.5 mg of zymosan was placed in a 1.5 ml capped Eppendorf tube and warmed to 37° C. 0.5 ml of cells at 37° C. were added together with ferricytochrome c (final concentration 1.2 mg/ml) and the cells were activated by shaking the capped tubes. […] Control tubes were set up under the same conditions with the inclusion of superoxide dismutase at 600 units per ml.

CC(=O)O[C@H]1C(=O)[C@@]2(C)[C@H]([C@H](OC(=O)c3ccccc3)[C@]3(O)C[C@H](OC(=O)[C@H](O)[C@@H](NC(=O)c4ccccc4)c4ccccc4)C(C)=C1C3(C)C)[C@]1(OC(C)=O)CO[C@@H]1C[C@@H]2O [paclitaxel]
cytotoxicity at 1 h, 46 µM (in vitro): < 5%
myeloperoxidase release (neutrophils [1]): significantly inhibited CPPD induced myeloperoxidase release at all times
inhibition of chemiluminescence over time (neutrophils [2]; 28 μM, CPPD and zymosan): significant at all times from 3 to 16 minutes
effect on chemiluminescence of controls (neutrophils [2]; all concentrations, no stimulus): no effect on the chemiluminescence values of controls
neutrophil activation (neutrophils [2]; crystal or particulate induced): strong inhibitor
lysozyme release (neutrophils [3]): reduced lysozyme release
encapsulated, % by weight of the polymer ([4]; fluorescence): 1.5%
encapsulated, % of original weight ([4]; fluorescence): 15%
amount encapsulated ([4]; fluorescence): 75 µg
encapsulated, % by weight of the polymer ([4]; uv/vis): 1.2%
encapsulated, % of original weight ([4]; uv/vis): 12%
amount encapsulated ([4]; uv/vis): 58 µg
avascular zone diameter ([5]; 48 h exposure, 10μ paclitaxel per 10 ml methylcellulose): 6 mm
inhibition of angiogenesis ([5]; 48 hours after application): angiogenesis was inhibited
cells arrested in mitosis in avascular zones ([5]; CAM histology): abundance of cells arrested in mitosis in all three germ layers
onset of inhibition of angiogenesis ([5]; after application): 9 h
time without revascularization of avascular zone ([5]; after application): at least 7 days
avascular gradient scale ([5]; within 48 hours, depending on concentration): 3 (avascularity extending beyond the disk (6 mm in diameter))
avascular zone diameter ([5]; within 48 hours, methylcellulose disks): 6 mm
minimal effective concentration (synoviocytes; 6 or 24 hours, read-out: lowest concentration inhibiting 3H-thymidine incorporation): ≤ 0.01 µM
inhibition of thymidine incorporation, high vs low concentrations (synoviocytes; 6 hours): no significant difference
inhibition of thymidine incorporation at low concentration (synoviocytes; 24 hours, 10^-8 M): some of the effect was lost at lower concentrations of the drug (10^-8 M), but was still substantially lower than that seen in control animals
superoxide anion production (neutrophils [6]; CPPD): decrease in the amount of superoxide generated at all times
superoxide anion production (neutrophils [6]; zymosan): less dramatic than the inhibition of CPPD activation but was significant at all times
